# Measurements as given in article PMC4171606, “A novel copper(I) complex induces ER-stress-mediated apoptosis and sensitizes B-acute lymphoblastic leukemia cells to chemotherapeutic agents” (Oncotarget, 2014).
# Key:
# [1] = test system: 26S proteasome semipurified from RS4;11 cells, Trypsin-like (T) activity; assay: Proteasome activity on semipurified cell extract (fluorogenic substrate); format: biochemical, human; conditions: RS4;11 extract, 60 min at 37 °C, cell-free
# Excerpt: (§1) The 26S proteasome is a multicatalytic protease responsible for the regulated intracellular protein degradation. Its function is mediated by three main catalytic activities i) chymotrypsin like (CT) ii) Trypsin-like (T) and iii) peptidyl glutamyl peptide hydrolyzing (PGPH). To evaluate the effect of CP on the proteasome activity in leukemia cells, we tested increasing concentrations of the compound on semipurified 26S proteasome extract from RS4;11 and SEM cells, and measured the functioning of each individual proteolytic activity under cell-free condition.
# (§2) FIGURE 3 CP treatment affects Ubiquitin Proteasome System (UPS) 26S proteasome (100 μg) semipurified from (A) SEM and (B) RS4;11 cells was incubated for 60 min at 37 °C with CP at different concentrations. Chymotrypsin (CT), trypsin (T) and peptidyl glutamyl peptide hydrolyzing (PGPH) catalytic activity were measured fluorimetrically (excitation 370, nm emission 460) by following the release of free AMC from synthetic substrates N-Suc-Leu-Leu-Val-Tyr-AMC, Boc-Gln-Ala-Arg-AMC and Z-Leu-Leu-Glu-AMC, specific for CT, T and PGPH activity, respectively. (C) Cells were incubated with CP 2.5 μM for the indicated times and then western blot analyses were performed to evaluate Ubiquitin accumulation.
# (§3) RS4;11 and SEM cells were homogenized in a lysis buffer (50 mM Tris-HCl, pH 7.5, 250 mM sucrose, 5 mM MgCl2, 1 mM DTT, 0.5 mM EDTA) and ultracentrifuged for 2 h at 300,000 g. Total protein content was estimated with BioRad protein assay (BioRad) and 100 μg of protein aliquots were incubated for 60 min at 37°C with CP at different concentrations. Afterwards, fluorogenic proteasome substrates (N-Suc-Leu-Leu-Val-Tyr-7-amido-4-methylcoumarin (AMC) for chymotripsin (CT), Boc-Gln-Ala-Arg-AMC for tripsin (T) and Z-Leu-Leu-Glu-AMC for peptidyl glutamyl peptide hydrolyzing (PGPH) were added and the substrate hydrolysis was measured after 30 min by monitoring the release of Tyr-7-amido-4-methylcoumarin (AMC) using a Varian Cary Eclipse (Varian) spectrofluorometer (excitation at 370 nm, emission at 460 nm).
# [2] = test system: 26S proteasome semipurified from SEM cells, Trypsin-like (T) activity; assay: as above; format: biochemical, human; conditions: 60 min at 37 °C, cell-free
# Excerpt: as §1, §2, §3
# [3] = test system: 26S proteasome semipurified from SEM cells, chymotrypsin like (CT) activity; assay: as above; format: biochemical, human; conditions: 60 min at 37 °C, cell-free
# Excerpt: as §1, §2, §3
# [4] = test system: 26S proteasome semipurified from RS4;11 cells, chymotrypsin like (CT) activity; assay: as above; format: biochemical, human; conditions: RS4;11 extract, 60 min at 37 °C, cell-free
# Excerpt: as §1, §2, §3
# [5] = test system: 26S proteasome semipurified from RS4;11 cells, peptidyl glutamyl peptide hydrolyzing (PGPH) activity; assay: as above; format: biochemical, human; conditions: RS4;11 extract, 60 min at 37 °C, cell-free
# Excerpt: as §1, §2, §3
# [6] = test system: 26S proteasome semipurified from SEM cells, peptidyl glutamyl peptide hydrolyzing (PGPH) activity; assay: as above; format: biochemical, human; conditions: 60 min at 37 °C, cell-free
# Excerpt: as §1, §2, §3
# Bcl-2 = assay: Western blot, Bcl-2; format: cell-based, human; conditions: SEM and RS4;11, CP 2.5 μM
# Procedure: (§4) FIGURE 2 CP induces caspase-dependent apoptosis without mitochondria involvement (A) Assessment of mitochondrial membrane potential (ΔΨmt) after treatment of RS4;11 and SEM cells with CP (2.5 μM) for the indicated times. Cells were stained with the fluorescent probe JC-1. Data are represented as mean ± S.E.M. of three independent experiments. (B) Flow cytometric analysis of RS4;11 and SEM cells treated with CP (2.5 μM) for 24 h showing cytochrome c labeled with a monoclonal antibody conjugated to FITC. Representative image of three experiments with similar results. (C) Cells were incubated with CP 2.5 μM and 5 μM in the presence or absence of the pan-caspase inhibitor z-VAD.fmk (100 μM). Cell viability was determined after 48 h by MTT assay. Data are represented as mean ± S.E.M. of three independent experiments performed in triplicate. *p<0.01 vs CP alone. (D) Western blot analysis of Bcl-2, cleaved caspase-12, caspase-9, cleaved caspase-7, caspase-3 and PARP after treatment of SEM and RS4;11 cells with CP (2.5 μM) for the indicated times. To confirm equal protein loading, each membrane was stripped and reprobed with anti-β-actin antibody. […]
# Cells were treated with CP and, after different times, were collected, centrifuged and washed with ice cold phosphate-buffered saline (PBS). […] The protein concentration in the supernatant was determined using the BCA protein assay (Pierce, Italy). […]
# [7] = test system: PHA stimulated healthy PBMC; assay: MTT growth inhibition, 72 h; format: cell-based, human; conditions: mean ± SE
# RS4;11 and SEM cells = assay: Mitochondrial transmembrane potential, JC-1; format: cell-based, human; conditions: CP 2.5 μM
# Procedure: To determine whether the apoptotic stimuli involved mitochondria alteration, we examined the mitochondrial transmembrane potential (ΔΨmt) by means of the fluorescence dye JC-1.
# as §4, with “assay.” for “assay. Data are represented as mean ± S.E.M. of three independent experiments performed in triplicate. *p<0.01 vs CP alone. (D) Western blot analysis of Bcl-2, cleaved caspase-12, caspase-9, cleaved caspase-7, caspase-3 and PARP after treatment of SEM and RS4;11 cells with CP (2.5 μM) for the indicated times. To confirm equal protein loading, each membrane was stripped and reprobed with anti-β-actin antibody.”
# The mitochondrial membrane potential was measured with the lipophilic cation 5,5',6,6'-tetrachlo-1,1',3,3'-tetraethylbenzimidazolyl-carbocyanine (JC-1) (Life Technologies, Italy) as previously described. Cytochrome c release was analyzed by flow cytometry using a commercial kit (Innocyte flow cytometric cytochrome c release kit, Calbiochem, Italy) following the manufacturer's instructions.
smiles,measurement,setting,value
"F[P-](F)(F)(F)(F)F.OCP(CO)CO.OCP(CO)CO.OCP(CO)CO.OCP(CO)CO.[Cu+] [CP, [Cu(thp)4][PF6]]",IC50,[1],~11 µM
same,IC50,[2],~12 µM
same,IC50,[3],~15 µM
same,IC50,[4],~18 µM
same,IC50,[5],~10 µM
same,IC50,[6],~16 µM
same,time at which decrease of Bcl-2 expression is detectable,Bcl-2,≥ 3 h
same,GI50,[7],16.9 ± 1.6 µM
same,percentage of cells with low ΔΨmt,RS4;11 and SEM cells,"slightly increased, only after 12 h"
